Literature values as cited in patent CN104013603A, “一种烟碱缓释贴剂” (Shanghai Tobacco Group Co Ltd, priority 2014, dated 2014).

What was measured:
[1] = background statement
[2] = background statement; remark: listed apart in the source

CN1CCC[C@H]1c1cccnc1 [尼古丁, (S)-3-(1-Methyl-2-pyrroli-dinyl)pyridine]
penetration into skin [1]: 可渗入皮肤
solubility [2]: 可溶于水、乙醇、氯仿、乙醚、油类
